As usually defined, the IC50 is the concentration at which inhibition is half-maximal. As a reminder, the AUC(0-inf) is total exposure, with the tail of the curve extrapolated. A low value points to less exposure. A word on the AUC(0-t): it is the area under the concentration-time curve up to a stated or last time point. Read a low AUC(0-t) as low exposure. What is called MRT inf is a mean duration of stay, worked out from the concentration-time curve.

Series [1] deals with SSP-25 cells. Kind of series: xCELLigence cell death assay in SSP-25 cells (cellular assay for RAD51 inhibition). Format: cell-based. Conditions: concentration gradient added at 20 hour mark, only values with R^>0.85 shown. How it is done: The efficacy of the peptides described herein was assessed by their ability to cause death in SSP-25 cells, which have amplification of RAD51 and are dependent on its activity.
First, 5,000 SSP25 cells were plated, and adherence and growth was measured for 20 hours using live measurements of current impedance through the plate using the xCELLigence™ instrument. At the 20 hour mark, a concentration gradient of each compound or a PBS control was added to the SSP-25 cells, which were cultured in […] RMPI media with 10% FBS. […] Only values with confidence and R^>0.85 are shown.

Series [2] in a line: in vitro. To be noted: mouse, serum.
Description: Serum stability data was obtained using the appropriate animal serum, each incubated with the compound for up to two hours at 37 C.
Series [3] can be described thus: Mouse pharmacokinetics, IV and IP dosing. It counts as in vivo, mice. Here is the method:
The pharmocokinetic parameters in mice by both intravenous (IV) and intraperitoneal (IP) dosing, as well as the serum and microsome stability for each of compound 22, 23, 24, and 25 was determined. Bioanalytical methods were developed for each compound using an LC-MS/MS method with LLOQ>100 ng/ml.
For in-vivo PK work, at least 3 mice were used per timepoint. For each compound, the animals were injected either IV or IP with the compound. IV injections used 1 mg/kg, and IP injections were at 15 mg/kg. Blood was collected at the indicated timepoints and analyzed according to the bioanalytical method developed.

For series [4], the system named is fresh human RBCs. Format: cell-based. Here is the method:
To assess the nonspecific lytic properties of each compounds disclosed herein, each mentioned compound was tested for hemolytic properties against fresh human RBCs. Briefly, donor blood was drawn into a K2EDTA anticoagulant tube from multiple O+ donors. The blood was washed 3 times in PBS. RBCs were diluted to 2% in PBS and compounds were added at various concentrations. Samples were incubated at 37 C for 1 hr, then centrifuged at 2200 rpm for 5 min. Supernatants were measured for absorbance at 450 nm or 405 nm. The percentage hemolysis was calculated as lysis relative to 1% Triton X-100 incubation.

Series [5] is described as follows: in vitro. To be noted: mouse, microsomes.
Description: (§1) For HLM and MLM stability studies, each compound was incubated with the liver microsome mixture for up to an hour at 37 C in the presence of NADPH.
(§2) After the incubations, the reactions were stopped and the compounds were analyzed according to the method developed for each.
A short description of series [6]: in vitro. To be noted: human, microsomes.
Description: as §1, §2
Series [7] has as its system SSP25 cells. The series can be described thus: xCELLigence cell death assay with necroptosis or apoptosis inhibitor. It counts as cell-based. To be noted: for cell death with added necroptosis inhibitor Necrostatin: 40 μM compound + 50 μM Necrostatin; for cell death with added apoptosis inhibitor z-VAD: 40 μM compound + 100 μM z-VAD. How it is done:
Further experiments were performed to elucidate the method of cell death induced by Compound 1. In one experiment, xCELLIGENCE cell death assays as in Examples 1 and 5 were performed, treating with either a necroptosis inhibitor (Necrostatin, 50 μM) alone or in combination with Compound 1 (40 μM). In another experiment, xCELLIGENCE cell death assays as in Examples 1 and 5 were performed, treating with either a apoptosis inhibitor (z-VAD, 100 μM) alone or in combination with Compound 1 (40 μM).

The subject of series [8] is A549 cells. The series can be described thus: A549 cell growth/death, xCELLigence and microscopy. Format: cell-based. Conditions: xCELLigence, concentration gradient. Here is the method:
To assess the growth inhibitory properties of compounds disclosed herein, 10 μM of Compound 1 was tested against a PBS mock treatment for growth of A549 cells using microscopy at the indicated timepoints shown in the top right corner of each panel of FIG. 2. […] First, 5,000 A549 cells were plated, and adherence and growth was measured for 20 hours using live measurements of current impedance through the plate using the xCELLigence™ instrument. At the […] mark, a concentration gradient of Compound 1 or a PBS control was added to the A549 cells, which were cultured in 100 μL DMEM media with 10% FBS.

In series [9] the test system is A549 cells. Kind of series: Intracellular calcium imaging with Fluo-2-AM. Format: cell-based. Conditions: 30 μM compound, pre-incubation with 2.5 μM Fluo-2-AM. An excerpt:
Timestamps for the duration of the experiment are indicated in each panel.
For orientation: Calcium flux is commonly read through the fluorescence of an indicator in the cells.

Series [10] deals with A549 xenograft. The series can be described thus: A549 xenograft in athymic nu/nu mice, Compound 1 IT and IP. To be noted: for tumor volume / size, intra-tumoral dosing: 50 microliters of 10 or 20 mg/ml IT, day 0, day 3 and every other day. It counts as in vivo. How it is done:
Female athymic nu/nu mice (6-8 weeks old) were purchased from Simonsen labs (n=12) and were housed at the Murigenics vivarium in Vallejo. The mice were acclimated to the setting of the vivarium for 5 days and maintained on a standard chow diet; 12:12 dark/light cycle; and group housed (3 mice per cage) in HEPA-filtered cages. After acclimation, each mouse was injected subcutaneously (lower left abdominal flank) with 5×10^6 A549 (ATCC: CCL-185) cells mixed with 1:1 (v/v) with Matrigel solution. When the tumors reached a volume of—100 mm3, the mice were divided into separate treatment groups for the desired treatments. Experiments using both intra-tumoral (IT) and intraperitoneal (IP) administration were performed and the data are reported in FIGS. 10 and 11.
Mice prepared as described above were divided into 4 groups: • Group 1: received an intra-tumoral injection of 50 microliters of Phosphate Buffered Saline (mock) (n=3) • Group 2: received an intra-tumoral injection of 50 microliters of 10 mg/ml Compound 1 in Phosphate Buffered Saline (n=3) • Group 3: received an intra-tumoral injection of 50 microliters of 20 mg/ml Compound 1 in Phosphate Buffered Saline (n=3)
The 50 microliter injections were carried out with a (30 g needle). The injections were administered on day zero and then again on day 3, and every other day. The length (L) and the width (W) of the tumor mass was measured with a Vernier caliper and the tumor volume (V) was calculated as V=(L×WA2)/2. The relative tumor volume of each tumor mass on each measurement day was normalized against the initial volume of the same mass on day zero right before initiation of injections. […]
The injections were carried out with a 30 g needle. […] The length (L) and the width (W) of the tumor mass was measured with a Vernier caliper and the tumor volume (V) was calculated as V=(L×WA2)/2. […]

The subject of series [11] is SSP25 cells. The series can be described thus: xCELLigence cell death assay with intracellular calcium chelators. Conditions: relative to compound alone. Format: cell-based. How it is done:
To investigate the hypothesis that peptide treatment of cells causes cell death via increases in intracellular free calcium levels, Compound 1 alone and in combination with two different intracellular calcium chelators (1,2-Bis(2-aminophenoxy)ethane-N,N,N′,N′-tetraacetic acid tetrakis(acetoxymethyl ester) aka “BAPTA-AM”, and ammoniated ruthenium oxychloride aka “ruthenium red”) was tested in an xCELLigence™ cell death assay as in Example 1. The intracellular calcium chelators alone were also evaluated on the cells.

The subject of series [12] is SSP25 cells. Kind of series: Selective killing, Cytation imaging of SSP25 cells. Format: cell-based. To be noted: 10 μM. How it is done: To assess the specificity of compounds disclosed herein in targeting cancers with overexpression of RAD51, Compound 1 was tested against primary fibroblasts and SSP25 cells (cholangiocarcinoma cell line) (FIG. 5). First, 5,000 cells were incubated in 96-well culture plates overnight. Cells were grown in DMEM or RPMI, respectively, with 10% FBS, and […] was added to a concentration of 10 μM and imaging commenced using a Cytation™ instrument using approximately 5 minute time points. DAPI was used to visualize the nuclei and mitotracker-red was used to observe mitochondria. […] Furthermore, cell morphology was affected within 5 minutes of imaging, and the macrobubble phenotype was stable for further periods of time.

Entries after “also recorded” stand apart in the source; their conditions may differ. Where two headings read alike, the source gives them in different places. [ ]: non-standard residue; d: D form.

In series [1], `CCCC[C@@H](NC(=O)[C@@H](CC(C)C)NC(C)=O)C(=O)N[C@H](CCCNC(=N)N)C(=O)N[C@H](CO)C(=O)N[C@@H](C(=O)N[C@H](CCCNC(=N)N)C(=O)N[C@H](CC(C)C)C(=O)N[C@H](CCCNC(=N)N)C(=O)N[C@@H](C(=O)NCC(=O)N[C@H](CC(C)C)C(=O)N[C@H](CCCNC(=N)N)C(=O)NCCCCCC(=O)N[C@H](CCCNC(=N)N)C(=O)NCCCCCC(=O)N[C@H](CCCNC(=N)N)C(=O)NCCCCCC(=O)N[C@H](CCCNC(=N)N)C(=O)NCCCCCC(=O)N[C@H](CCCNC(=N)N)C(=O)NCCCCCC(=O)N[C@H](CCCNC(=N)N)C(N)=O)C(C)C)C(C)C` [Compound 25, Ac-l{d-norLeucine}rsvrlrvGlr(Ahx)r(Ahx)r(Ahx)r(Ahx)r(Ahx)r-NH2] yielded an IC50 of 14 µM. In addition, the half-life in [2] was more than 8.33 h; in [3] (in vivo, ip, 15 mg/kg, 15 mg/kg IP, read-out: t½ (converted)), 2.14 h; in [3] (in vivo, ip, 15 mg/kg, IP (15 mg/kg), read-out: Half-life Mouse IP), 2.14 h; in [3] (in vivo, iv, 1 mg/kg, 1 mg/kg IV, read-out: t½ (converted)) it was 0.423 h; in [3] (in vivo, iv, 1 mg/kg, IV (1 mg/kg), read-out: Half-life Mouse IV), 0.423 h; in series [5], 0.77 h. In addition, in series [6], the half-life worked out at 1.36 h. In series [3] (1 mg/kg IV), the “AUC Extr” value worked out at 16.8%. This compound also displayed a Vss in series [3] (15 mg/kg IP) of 3.41 L/kg. The area under the curve AUC(0-inf) is 308 ng·h/mL in series [3] (in vivo, 1 mg/kg IV) and 831 ng·h/mL in series [3] (in vivo, 15 mg/kg IP). In series [3] (in vivo, 1 mg/kg IV), this compound displayed an AUC(0-t) of 254 ng·h/mL. In series [3] (in vivo, 1 mg/kg IV), this compound yielded a C0 of 750 ng/mL. Also, the MRT inf in [3] (in vivo, 1 mg/kg IV) was found to be 0.551 h; in series [3] (in vivo, 15 mg/kg IP), 21.8 h. For the same compound, in [3] (in vivo, 1 mg/kg IV), the clearance is 55.7 mL/min/kg. In addition, the Vd in [3] (in vivo, iv, 1 mg/kg, 1 mg/kg IV, read-out: Vss) came to 1.8 L/kg; in series [3] (in vivo, iv, 1 mg/kg, 1 mg/kg IV, read-out: Vz), 1.99 L/kg. In series [4] (red cells of human, 1 h, 250), the “% Hemolysis (250 uM)” value is listed as 4%.

The compound “Ac-lmrsvrlrvGlrkrrrrrrr-NH2 (Ac-[dL][dM][dR][dS][dV][dR][dL][dR][dV]G[dL][dR][dK][dR][dR][dR][dR][dR][dR][dR]-NH2) [Compound 1]” had an IC50 in series [1] of 2.4 µM. The figures for the “cell death with added necroptosis inhibitor Necrostatin” value in series [7] and in series [7] (listed as compound 1) were “addition of the inhibitor has no effect on the activity” and “does not cause cell death through necroptosis or apoptosis”, respectively. The figures for the “cell death with added apoptosis inhibitor z-VAD” value in [7] and in series [7] (listed as compound 1) were “addition of the inhibitor has no effect on the activity” and “does not cause cell death through necroptosis or apoptosis”, respectively. The “effect on growth / cell death of A549 cells” value in series [8] is recorded as “dose-dependent effect on the growth of A549 cells displaying acute cell death kinetics”. The “intracellular calcium (Fluo-2 dye)” value in [9] was “accumulation of intracellular calcium”. In addition, the “tumor volume / size, intra-tumoral dosing” value in series [10] was “measurable decreases in tumor size as early as day 3”; in series [10] (listed as compound 1) it was “significant effects on tumor volume after only a few days of treatment”. For the same compound, the “tumor size, intra-peritoneal dosing” value in series [10] (125 microliters of 3 mg/ml IP, single dose on day seven) is given as “measurable decreases in tumor size as early as 3 days after injection (day 10)”. In series [11] (10 μM compound + 10 μM BAPTA-AM), the “cell death with added calcium chelator BAPTA-AM” value was “rescues cell death relative to compound alone; also recorded: addition of BAPTA-AM rescues cell death”. For the same compound, the “cell death with added calcium chelator ruthenium red” value in series [11] (10 μM compound + 40 μM Ruthenium red) is “rescues cell death relative to compound alone; also recorded: addition of ruthenium red rescues cell death”. Besides, the “% Hemolysis (250 uM)” value in [4] is reported as 3%. Besides, the “time until cell morphology was affected” value in [12] is recorded as not above 5 minutes. Besides, in [12] (approx. 5 minute time points), the “cell morphology / cell death in SSP25 cells” value is “drastically affected in SSP25 cells”.

(Values after patent publication US12590126B2, “Compounds for selective disruption of protein-protein interactions” (SyntheX, Inc., priority 2017, dated 2026).)
